Data reported in PubChem BioAssay (NCI).
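1) Cells in 96-well plates. 2) Compound, 48 h, 5 concentrations. 3) Linear interpolation between surrounding doses. 4) Unreached endpoint = highest concentration. Abbreviation: GI50, concentration required for 50% inhibition of growth. TGI marks complete inhibition of growth.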

These compounds were tested on MDA-MB-468 breast (assay: growth of human tumour cells (NCI), 48 h).

Compared with CC(C)[C@@]12C[C@@H](OC(=O)COC(=O)/C=C/c3ccccc3)[C@@](C)(O1)[C@@H]1CC[C@@H](C)[C@H]1[C@@H]2OC(=O)/C=C/c1ccccc1, Cc1nc2sc(C(=O)Nc3cccc4ccccc34)c(N)c2cc1C(=O)/C=C/c1ccccc1 is lower in GI50: greater than 61400 nM for the first, 194 nM for the second.

Going from C/C(=C\c1ccn(-c2ccc(N)c(F)c2)n1)[C@@H]1C[C@@H]2O[C@]2(C)CCC[C@H](C)[C@H](O)[C@@H](C)C(=O)C(C)(C)[C@@H](O)CC(=O)O1 to C[C@H]1[C@H](C)CC[C@]2(C(=O)N3CCN(C)CC3)CC[C@]3(C)C(=CC[C@@H]4[C@@]5(C)C/C(=C/c6cccnc6)C(=O)C(C)(C)[C@@H]5CC[C@]43C)[C@H]12, the GI50 rises from 9.96 nM to 665 nM (67-fold).

Compared with Cc1cc(NC(=O)NC(=O)c2ccccc2N)ccc1Oc1ncc(Br)cn1, CS(=O)(=O)c1ccc(-c2cnc(N)c(C(=O)Nc3ccccc3)n2)cc1 is higher in GI50: less than 10 nM for the first, greater than 37200 nM for the second.

CCN1CCN(CC(=O)Nc2nc3ccc(NCc4ccc(Cl)cc4)cc3s2)CC1 and CCCCCc1ccc(S(=O)(=O)Nc2cccc(-c3csc(NCCN4CCN(C)CC4)n3)c2)cc1 are within 1.5-fold of each other in GI50: 1770 nM for the first, 1630 nM for the second.

Going from Cc1nc2cnc3cc(F)c(-c4ccc(Oc5ncccn5)cc4Cl)cc3c2n1[C@H]1CCN(C(=O)CO)C[C@@H]1F to COc1ccc(-c2cc(-c3ccccc3)nc(N3CCN(CCNc4ccnc5cc(Cl)ccc45)CC3)n2)cc1, the GI50 falls from 9470 nM to 1220 nM (7.8-fold).

COc1ccc2c(c1)c(-c1nc(-c3c[nH]c4ncccc34)cs1)cn2CCCCN1CCOCC1 and CN1CCN(c2nc(NCCCCNc3ccnc4cc(Cl)ccc34)c3ccccc3n2)CC1 are within 1.5-fold of each other in GI50: 1950 nM for the first, 1580 nM for the second.

Compared with CN(C)c1ccc(-c2cc(-c3ccc(Nc4nc(Nc5ccccc5)nc(Nc5ccc(Cl)cc5)n4)cc3)nc(N)n2)cc1, CN(c1ccc(NC(=O)Nc2ccc(OC(F)(F)F)cc2)cc1)c1ccnc(Nc2cccc(S(N)(=O)=O)c2)n1 is 2-fold lower in GI50: 7910 nM for the first, 3930 nM for the second.

First: CC(C)(C)c1cc(NC(=O)Nc2ccc(-c3cn4c5c(sc4n3)CCc3c[nH]cc3-5)cc2)no1
Second: COc1ccc(-c2nnc(SCC(=O)Nc3ccc(/C(C)=N\O)cc3)n2-c2ccccc2)cc1OC
The GI50 of the first is 8.3-fold lower: 1970 nM for the first, 16400 nM for the second.

First: N=c1c2c(-c3ccccc3)c(-c3ccccc3)n(Cc3ccccc3)c2ncn1CCCO
Second: O=C(CCCCCCSc1nc(-c2ccccc2)cc(-c2ccccc2)n1)NO
The GI50 of the first is 4.8-fold lower: 581 nM for the first, 2770 nM for the second.

COc1cc(Cn2c(=S)ss/c2=N\C(=S)N(C)C)cc(OC)c1OC and COc1cc(C(O)c2nc3ccccc3s2)cc(OC)c1OC (stereo unspecified) are within 1.5-fold of each other in GI50: 7040 nM for the first, 5680 nM for the second.

NC(=O)c1cc([N+](=O)[O-])c(Cl)c([N+](=O)[O-])c1 and O=C1/C(=C/c2ccc([N+](=O)[O-])o2)Oc2ccc(Br)cc21 are within 1.5-fold of each other in GI50: 1670 nM for the first, 2020 nM for the second.

First: Cc1ccc2cc3c(ccc4ccccc43)c3c2c1CC3
Second: Cn1ccc2c(c1=O)C(=O)c1nccc3c1c-2nc1ccccc13
The GI50 of the first is 8.5-fold lower: 169 nM for the first, 1440 nM for the second.

Going from CCc1cccc2c3c(sc12)C(c1ccc(Cl)cc1)C(C#N)=C(N)O3 (stereo unspecified) to CCN(CCNc1ccc(C)c2sc3cc(Cl)ccc3c(=O)c12)CC(C)O (stereo unspecified), the GI50 rises from 280 nM to 1740 nM (6.2-fold).

First: O=C1/C(=C/c2ccccc2F)CNC/C1=C\c1ccccc1F
Second: COc1ccc(C(=O)COc2cccc(/C=C3\CSc4ccccc4C3=O)c2)cc1
The GI50 of the first is 2.3-fold lower: 626 nM for the first, 1420 nM for the second.

Compared with Cn1c(=O)c(Oc2ccc(F)cc2F)cc2cnc(NC(CO)CO)nc21, COc1ccc(C(=O)/C=C/c2c(C(F)(F)F)nc3sccn23)cc1OC is lower in GI50: greater than 25000 nM for the first, 6180 nM for the second.

Compared with C=C(C)[C@@H]1CC[C@]2(C(=O)NCCNCCNCCN)CC[C@]3(C)[C@H](CC[C@@H]4[C@@]5(C)CC[C@H](O)C(C)(C)[C@@H]5CC[C@]43C)[C@@H]12, C=CC1=C[C@@H]2[C@@H]3O[C@]4(CC[C@H](O4)[C@@H](C)C[C@@H](O)C3=O)C[C@H](O)C3=NCC[C@@]32CC1 is lower in GI50: 8880 nM for the first, less than 3.33 nM for the second.

First: O=C1CC(c2ccc3c(c2)OCO3)Nc2cc3c(cc21)OCO3 (stereo unspecified)
Second: COc1ccc(-c2cnnn2-c2cc(OC)c3c(c2)OCO3)cc1
The GI50 of the first is 5.2-fold higher: 295 nM for the first, 56.5 nM for the second.

Compared with COc1ccc(C/C(C)=C(\c2ccc(OCCN3CCOCC3)cc2)c2ccc(OC(=O)Cc3ccccc3)cc2)cc1, COc1ccn2c(C(C)=O)cc(C(=O)c3ccc4c(c3)Sc3ccccc3N4)c2c1 is 3.2-fold lower in GI50: 514 nM for the first, 159 nM for the second.

Going from CCCCCCCCCCCCCCCC[N+](C)(C)CCN(Cc1ccc(OC)cc1)c1ncccn1 to C=CCNCCCN1C(=O)c2ccc3c4c(ccc(c24)C1=O)C(=O)N(CCCNCC=C)C3=O, the GI50 falls from 1040 nM to 177 nM (5.9-fold).

First: NC1=C(Br)C(=O)c2ncccc2C1=O
Second: N#Cc1c2cccnc2c2nnc3cc(Cl)c(Cl)cc3n12
The GI50 of the first is 1.9-fold lower: 570 nM for the first, 1100 nM for the second.

Going from COC(=O)c1cc(-c2cc(OC)c(OC)c(OC)c2)[nH]c1N/N=C/c1c(Cl)cccc1Cl to C[C@]12CC[C@@H]3c4ccc(O)cc4CC[C@H]3[C@@H]1CC[C@@H]2NS(=O)(=O)c1cccc(C(F)(F)F)c1, the GI50 falls from 8290 nM to 4080 nM (2-fold).

First: CC1=CCC(OC(=O)C(C)(C)CCC(O)(C(=O)OC2(C(C)C)CCC3(C)OC3C2)C(C)C)(C(C)C)CC1 (stereo unspecified)
Second: CC(CN1CCN(C)CC1)CN1c2ccccc2Sc2ccc(C(F)(F)F)cc21 (stereo unspecified)
The GI50 of the first is 4.6-fold lower: 351 nM for the first, 1630 nM for the second.

Compared with O=C1c2ccc3c4c5ccc(c24)C(=O)N1CCCOCCCCOCCCNCc1ccc(cc1)CNCCCOCCCCOCCCN(C3=O)C5=O, Cn1ccnc1C(=O)/C=C/c1ccc(CC(=O)Nc2ccc(S(F)(F)(F)(F)F)cc2)cc1 is 3.1-fold higher in GI50: 802 nM for the first, 2480 nM for the second.

Compared with CC(C)[C@@]12C[C@@H](OC(=O)COC(=O)/C=C/c3ccccc3)[C@@](C)(O1)[C@@H]1CC[C@@H](C)[C@H]1[C@@H]2OC(=O)/C=C/c1ccccc1, Cc1nc2sc(C(=O)Nc3cccc4ccccc34)c(N)c2cc1C(=O)/C=C/c1ccccc1 is lower in TGI: greater than 100000 nM for the first, 745 nM for the second.

Cc1cc(NC(=O)NC(=O)c2ccccc2N)ccc1Oc1ncc(Br)cn1 and CS(=O)(=O)c1ccc(-c2cnc(N)c(C(=O)Nc3ccccc3)n2)cc1 cannot be ordered by TGI: greater than 100000 nM for the first, greater than 100000 nM for the second.

CCN1CCN(CC(=O)Nc2nc3ccc(NCc4ccc(Cl)cc4)cc3s2)CC1 and CCCCCc1ccc(S(=O)(=O)Nc2cccc(-c3csc(NCCN4CCN(C)CC4)n3)c2)cc1 are within 1.5-fold of each other in TGI: 4610 nM for the first, 3160 nM for the second.

First: Cc1nc2cnc3cc(F)c(-c4ccc(Oc5ncccn5)cc4Cl)cc3c2n1[C@H]1CCN(C(=O)CO)C[C@@H]1F
Second: COc1ccc(-c2cc(-c3ccccc3)nc(N3CCN(CCNc4ccnc5cc(Cl)ccc45)CC3)n2)cc1
The TGI of the first is 11-fold higher: 28900 nM for the first, 2620 nM for the second.

COc1ccc2c(c1)c(-c1nc(-c3c[nH]c4ncccc34)cs1)cn2CCCCN1CCOCC1 and CN1CCN(c2nc(NCCCCNc3ccnc4cc(Cl)ccc34)c3ccccc3n2)CC1 are within 1.5-fold of each other in TGI: 3980 nM for the first, 3660 nM for the second.

First: C[C@H]1[C@H](C)CC[C@]2(C(=O)N3CCN(C)CC3)CC[C@]3(C)C(=CC[C@@H]4[C@@]5(C)C/C(=C/c6cccnc6)C(=O)C(C)(C)[C@@H]5CC[C@]43C)[C@H]12
Second: C=C(C)[C@@H]1CC[C@]2(C(=O)NCCNCCNCCN)CC[C@]3(C)[C@H](CC[C@@H]4[C@@]5(C)CC[C@H](O)C(C)(C)[C@@H]5CC[C@]43C)[C@@H]12
The TGI of the first is 11-fold lower: 2040 nM for the first, 22700 nM for the second.

Going from CN(C)c1ccc(-c2cc(-c3ccc(Nc4nc(Nc5ccccc5)nc(Nc5ccc(Cl)cc5)n4)cc3)nc(N)n2)cc1 to CN(c1ccc(NC(=O)Nc2ccc(OC(F)(F)F)cc2)cc1)c1ccnc(Nc2cccc(S(N)(=O)=O)c2)n1, the TGI falls from greater than 100000 nM to 8860 nM.

First: CC(C)(C)c1cc(NC(=O)Nc2ccc(-c3cn4c5c(sc4n3)CCc3c[nH]cc3-5)cc2)no1
Second: COc1ccc(-c2nnc(SCC(=O)Nc3ccc(/C(C)=N\O)cc3)n2-c2ccccc2)cc1OC
The TGI of the first is lower: 32800 nM for the first, greater than 100000 nM for the second.

First: N=c1c2c(-c3ccccc3)c(-c3ccccc3)n(Cc3ccccc3)c2ncn1CCCO
Second: O=C(CCCCCCSc1nc(-c2ccccc2)cc(-c2ccccc2)n1)NO
The TGI of the first is 5-fold lower: 2090 nM for the first, 10500 nM for the second.

Compared with COc1cc(Cn2c(=S)ss/c2=N\C(=S)N(C)C)cc(OC)c1OC, COc1cc(C(O)c2nc3ccccc3s2)cc(OC)c1OC (stereo unspecified) is lower in TGI: greater than 100000 nM for the first, 57200 nM for the second.

NC(=O)c1cc([N+](=O)[O-])c(Cl)c([N+](=O)[O-])c1 and O=C1/C(=C/c2ccc([N+](=O)[O-])o2)Oc2ccc(Br)cc21 are within 1.5-fold of each other in TGI: 3320 nM for the first, 4460 nM for the second.

Compared with Cc1ccc2cc3c(ccc4ccccc43)c3c2c1CC3, Cn1ccc2c(c1=O)C(=O)c1nccc3c1c-2nc1ccccc13 is 7.6-fold higher in TGI: 372 nM for the first, 2810 nM for the second.

Compared with CCc1cccc2c3c(sc12)C(c1ccc(Cl)cc1)C(C#N)=C(N)O3 (stereo unspecified), CCN(CCNc1ccc(C)c2sc3cc(Cl)ccc3c(=O)c12)CC(C)O (stereo unspecified) is 3.3-fold higher in TGI: 1020 nM for the first, 3390 nM for the second.

O=C1/C(=C/c2ccccc2F)CNC/C1=C\c1ccccc1F and COc1ccc(C(=O)COc2cccc(/C=C3\CSc4ccccc4C3=O)c2)cc1 are within 1.5-fold of each other in TGI: 2750 nM for the first, 2930 nM for the second.

Cn1c(=O)c(Oc2ccc(F)cc2F)cc2cnc(NC(CO)CO)nc21 and COc1ccc(C(=O)/C=C/c2c(C(F)(F)F)nc3sccn23)cc1OC cannot be ordered by TGI: greater than 25000 nM for the first, greater than 100000 nM for the second.

Going from O=C1CC(c2ccc3c(c2)OCO3)Nc2cc3c(cc21)OCO3 (stereo unspecified) to COc1ccc(-c2cnnn2-c2cc(OC)c3c(c2)OCO3)cc1, the TGI rises from 924 nM to greater than 100000 nM.

First: COc1ccc(C/C(C)=C(\c2ccc(OCCN3CCOCC3)cc2)c2ccc(OC(=O)Cc3ccccc3)cc2)cc1
Second: COc1ccn2c(C(C)=O)cc(C(=O)c3ccc4c(c3)Sc3ccccc3N4)c2c1
The TGI of the first is lower: 1470 nM for the first, greater than 24800 nM for the second.

Compared with CCCCCCCCCCCCCCCC[N+](C)(C)CCN(Cc1ccc(OC)cc1)c1ncccn1, C=CCNCCCN1C(=O)c2ccc3c4c(ccc(c24)C1=O)C(=O)N(CCCNCC=C)C3=O is 8.5-fold lower in TGI: 3580 nM for the first, 423 nM for the second.

NC1=C(Br)C(=O)c2ncccc2C1=O and N#Cc1c2cccnc2c2nnc3cc(Cl)c(Cl)cc3n12 are within 1.5-fold of each other in TGI: 2130 nM for the first, 2590 nM for the second.

Going from C=CC1=C[C@@H]2[C@@H]3O[C@]4(CC[C@H](O4)[C@@H](C)C[C@@H](O)C3=O)C[C@H](O)C3=NCC[C@@]32CC1 to C[C@]12CC[C@@H]3c4ccc(O)cc4CC[C@H]3[C@@H]1CC[C@@H]2NS(=O)(=O)c1cccc(C(F)(F)F)c1, the TGI rises from less than 3.33 nM to 16900 nM.

Compared with COC(=O)c1cc(-c2cc(OC)c(OC)c(OC)c2)[nH]c1N/N=C/c1c(Cl)cccc1Cl, Cn1ccnc1C(=O)/C=C/c1ccc(CC(=O)Nc2ccc(S(F)(F)(F)(F)F)cc2)cc1 is 9.3-fold lower in TGI: 48200 nM for the first, 5170 nM for the second.

First: CC1=CCC(OC(=O)C(C)(C)CCC(O)(C(=O)OC2(C(C)C)CCC3(C)OC3C2)C(C)C)(C(C)C)CC1 (stereo unspecified)
Second: CC(CN1CCN(C)CC1)CN1c2ccccc2Sc2ccc(C(F)(F)F)cc21 (stereo unspecified)
The TGI of the first is 2.6-fold lower: 1240 nM for the first, 3220 nM for the second.

O=C1c2ccc3c4c5ccc(c24)C(=O)N1CCCOCCCCOCCCNCc1ccc(cc1)CNCCCOCCCCOCCCN(C3=O)C5=O gave a TGI of 1650 nM.
